Reference: patent US10160747B2, “Compounds and methods for kinase modulation, and indications therefor” (Plexxikon Inc., priority 2016, dated 2018)

Experiments:
FLT3-ITD = target: T1, FLT3-ITD (Homo sapiens, UniProt P36888); assay: FLT3-ITD recombinant enzyme kinase assay (AlphaScreen); type: biochemical; conditions: 8 pt; read-out: FLT3_ITD 8 pt: IC50
T1 sequence (P36888 1-993): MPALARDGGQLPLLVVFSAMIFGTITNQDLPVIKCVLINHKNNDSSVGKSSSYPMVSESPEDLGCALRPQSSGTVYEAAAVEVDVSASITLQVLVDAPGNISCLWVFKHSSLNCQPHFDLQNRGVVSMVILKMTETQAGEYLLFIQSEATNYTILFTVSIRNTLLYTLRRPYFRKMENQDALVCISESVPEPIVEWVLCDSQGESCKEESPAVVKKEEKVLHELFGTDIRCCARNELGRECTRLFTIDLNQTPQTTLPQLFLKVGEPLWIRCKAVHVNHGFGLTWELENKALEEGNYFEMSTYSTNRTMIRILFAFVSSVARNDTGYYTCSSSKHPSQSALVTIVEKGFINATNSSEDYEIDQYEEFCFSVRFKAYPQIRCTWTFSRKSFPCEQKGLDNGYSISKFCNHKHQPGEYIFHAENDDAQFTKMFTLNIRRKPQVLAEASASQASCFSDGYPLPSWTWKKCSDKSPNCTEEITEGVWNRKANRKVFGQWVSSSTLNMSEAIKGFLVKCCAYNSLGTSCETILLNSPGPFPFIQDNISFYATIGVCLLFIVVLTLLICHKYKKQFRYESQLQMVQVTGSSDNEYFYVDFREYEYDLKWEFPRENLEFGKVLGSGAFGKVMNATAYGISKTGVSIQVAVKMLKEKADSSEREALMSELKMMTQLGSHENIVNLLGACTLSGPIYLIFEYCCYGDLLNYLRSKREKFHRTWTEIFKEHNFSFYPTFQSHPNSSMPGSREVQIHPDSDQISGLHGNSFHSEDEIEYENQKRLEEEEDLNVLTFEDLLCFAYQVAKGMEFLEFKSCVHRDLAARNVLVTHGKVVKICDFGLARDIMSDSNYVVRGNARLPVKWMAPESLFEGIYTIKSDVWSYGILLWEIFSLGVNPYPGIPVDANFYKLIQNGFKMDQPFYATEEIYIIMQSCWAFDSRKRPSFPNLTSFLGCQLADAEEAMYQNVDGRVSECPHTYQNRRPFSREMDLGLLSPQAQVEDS
In short: (§1)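 AlphaScreen proximity signal at 580 nm, from PY20 acceptor and streptavidin donor beads, measures tyrosine phosphorylation of 30 nM biotin-poly(Glu4-Tyr) peptide by recombinant kinase. ATP: 10 μM (FLT3 mutants), 100 μM (c-KIT). IC50 from loss of signal.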

c-KIT = target: T2, c-KIT (Homo sapiens, UniProt P10721); assay: c-KIT recombinant enzyme kinase assay (AlphaScreen); type: biochemical; conditions: 100 ATP, 8 pt
T2 construct: purchased Millipore 14-559K
T2 sequence (P10721 26-976): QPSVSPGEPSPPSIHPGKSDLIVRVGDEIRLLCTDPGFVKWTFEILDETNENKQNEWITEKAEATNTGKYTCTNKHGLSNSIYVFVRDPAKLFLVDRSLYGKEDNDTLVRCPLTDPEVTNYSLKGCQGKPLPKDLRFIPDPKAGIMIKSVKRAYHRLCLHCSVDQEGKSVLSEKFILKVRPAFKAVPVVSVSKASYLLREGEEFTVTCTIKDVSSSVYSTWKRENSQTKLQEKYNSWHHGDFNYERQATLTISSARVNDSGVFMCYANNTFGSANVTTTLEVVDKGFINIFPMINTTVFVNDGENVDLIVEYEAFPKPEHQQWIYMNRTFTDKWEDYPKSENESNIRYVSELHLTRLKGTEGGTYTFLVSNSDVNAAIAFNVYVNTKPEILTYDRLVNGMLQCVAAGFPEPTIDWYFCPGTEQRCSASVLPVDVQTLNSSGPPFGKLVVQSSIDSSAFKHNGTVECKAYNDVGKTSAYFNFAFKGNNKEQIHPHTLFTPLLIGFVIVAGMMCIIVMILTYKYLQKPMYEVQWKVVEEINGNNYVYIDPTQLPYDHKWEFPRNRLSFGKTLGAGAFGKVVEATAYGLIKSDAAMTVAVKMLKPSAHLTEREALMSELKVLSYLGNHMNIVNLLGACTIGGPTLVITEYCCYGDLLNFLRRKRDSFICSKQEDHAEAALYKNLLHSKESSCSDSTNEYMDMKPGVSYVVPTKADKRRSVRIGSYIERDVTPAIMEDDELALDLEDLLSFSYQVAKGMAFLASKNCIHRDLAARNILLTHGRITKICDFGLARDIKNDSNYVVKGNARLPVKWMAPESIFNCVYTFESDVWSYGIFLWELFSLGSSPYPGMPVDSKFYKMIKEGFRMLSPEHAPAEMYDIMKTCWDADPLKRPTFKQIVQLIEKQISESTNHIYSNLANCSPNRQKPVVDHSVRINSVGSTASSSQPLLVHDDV
In short: as §1

Structure (SMILES) | IC50 (FLT3-ITD) | IC50 (c-KIT)
Cn1cc(Nc2ncc(-c3ccc(CC(=O)Nc4ccnc(C(F)(F)F)c4)c(F)c3)cn2)cn1 [Compound P-0083, 2-[2-fluoro-4-[2-[(1-methylpyrazol-4-yl)amino]pyrimidin-5-yl]phenyl]-N-[2-(trifluoromethyl)-4-pyridyl]acetamide] | 0.0001 to 10 µM | 0.0001 to 10 µM
O=C(Cc1ccc(-c2cnc3[nH]cc(F)c3c2)cc1F)Nc1cncc(C(F)(F)F)c1 [Compound P-0053, 2-[2-fluoro-4-(3-fluoro-1H-pyrrolo[2,3-b]pyridin-5-yl)phenyl]-N-[5-(trifluoromethyl)-3-pyridyl]acetamide] | 0.0001 to 10 µM | 0.0001 to 10 µM
Cn1cc(Nc2ncc(-c3ccc(CC(=O)Nc4cncc(C(F)(F)F)c4)c(F)c3)cn2)cn1 [Compound P-0084, 2-[2-fluoro-4-[2-[(1-methylpyrazol-4-yl)amino]pyrimidin-5-yl]phenyl]-N-[5-(trifluoromethyl)-3-pyridyl]acetamide] | 0.0001 to 10 µM | 0.0001 to 10 µM
COc1ncc(NC(=O)Cc2ccc(-c3cnc(Nc4cn[nH]c4)nc3)cc2)cc1C(F)(F)F [Compound P-0025, N-[6-methoxy-5-(trifluoromethyl)-3-pyridyl]-2-[4-[2-(1H-pyrazol-4-ylamino)pyrimidin-5-yl]phenyl]acetamide] | 0.0001 to 10 µM | 0.0001 to 10 µM
CC(C)(C)c1ccc(NC(=O)Cc2ccc(-c3cnc4[nH]cc(F)c4c3)cc2F)cn1 [Compound P-0043, N-(6-tert-butyl-3-pyridyl)-2-[2-fluoro-4-(3-fluoro-1H-pyrrolo[2,3-b]pyridin-5-yl)phenyl]acetamide] | 0.0001 to 10 µM | 0.0001 to 10 µM
COc1nn(C[C@H](C)O)cc1Nc1ncc(-c2ccc(CC(=O)Nc3cncc(C(F)(F)F)c3)c(F)c2)cn1 [Compound P-0050, 2-[2-fluoro-4-[2-[[1-[(2S)-2-hydroxypropyl]-3-methoxy-pyrazol-4-yl]amino]pyrimidin-5-yl]phenyl]-N-[5-(trifluoromethyl)-3-pyridyl]acetamide] | 0.0001 to 10 µM | 0.0001 to 10 µM
O=C(Cc1ccc(-c2cnc3[nH]cc(Cl)c3n2)cc1F)Nc1cnc(Cl)c(C(F)(F)F)c1 [Compound P-0060, 2-[4-(7-chloro-5H-pyrrolo[2,3-b]pyrazin-2-yl)-2-fluoro-phenyl]-N-[6-chloro-5-(trifluoromethyl)-3-pyridyl]acetamide] | 0.0001 to 10 µM | 0.0001 to 10 µM
O=C(Cc1ccc(-c2cnc(Nc3cnn4ccccc34)nc2)c(F)c1)Nc1cncc(C(F)(F)F)c1 [Compound P-0071, 2-[3-fluoro-4-[2-(pyrazolo[1,5-a]pyridin-3-ylamino)pyrimidin-5-yl]phenyl]-N-[5-(trifluoromethyl)-3-pyridyl]acetamide] | 0.0001 to 10 µM | 0.0001 to 10 µM
O=C(Cc1ccc(-c2cnc3[nH]nc(C4CC4)c3c2)cc1)Nc1cncc(C(F)(F)F)c1 [Compound P-0073, 2-[4-(3-cyclopropyl-1H-pyrazolo[3,4-b]pyridin-5-yl)phenyl]-N-[5-(trifluoromethyl)-3-pyridyl]acetamide] | 0.0001 to 10 µM | 0.0001 to 10 µM
Cc1ncc(NC(=O)Cc2ccc(-c3cnc4[nH]cc(Cl)c4n3)cc2)cc1C(F)(F)F [Compound P-0079, 2-(4-(7-chloro-5H-pyrrolo[2,3-b]pyrazin-2-yl)phenyl)-N-(6-methyl-5-(trifluoromethyl)pyridin-3-yl)acetamide] | 0.0001 to 10 µM | 0.0001 to 10 µM
Cc1ncc(NC(=O)Cc2ccc(-c3cnc4[nH]c(Cl)cc4c3)cc2F)cc1C(F)(F)F [Compound P-0067, 2-[4-(2-chloro-1H-pyrrolo[2,3-b]pyridin-5-yl)-2-fluoro-phenyl]-N-[6-methyl-5-(trifluoromethyl)-3-pyridyl]acetamide] | 0.0001 to 10 µM | 0.0001 to 10 µM
